Structures can show the parent of a compound that is named as a salt.
System: HUVEC+017-PC-M co-cultures
Experiment: Kit co-culture assay to study angiogenesis in vitro (tube formation on MATRIGEL)
Format: cell-based, human
Description: A kit has been developed to provide a unique, robust co-culture assay to study angiogenesis in vitro. In this model system, we utilize a unique perivascular stromal cell line (017-PC-M) that when co-cultured with human umbilical vein endothelial cells (HUVEC) results in the rapid formation of large angiogenic networks with long-term stability of 4-6 days without the need for additional growth factors and complex media supplements.
VASCULIFE® assay media: VASCULIFE® basal media plus 10 mM L-glutamine (final concentration)
Assay Protocol: • 1. Four days (Day −4) prior to assay, HUVECs should be thawed and seeded at 3.5×10^4 cells per cm^2 into a 150 cm^2 tissue culture flask containing VASCULIFE® growth media. Incubate cells at 37° C. and 5% CO2. Exchange full volume of media every 1-2 days. • 2. Two days (Day −2) prior to assay, PC-M cells should be thawed and seeded at 10×10^4 cells per cm^2 into a 150 cm^2 tissue culture flask containing VASCULIFE® growth media. Incubate cells at 37° C. and 5% CO2. Exchange full volume of media every 1-2 days. • 3. At Day 0, prepare 96-well plate with MATRIGEL® coating of 50 μL per well. Let plate warm for at least 1 hour prior to seeding cells. • 4. Prepare assay solution: dilute L-glutamine into VASCULIFE® medium. • 5. On Day 0, harvest both HUVECs and PC-M cells. Recommended: Use 5-7.5 mL ACCUTASE® treatment for 3-5 minutes to detach cells, then quench Accutase® with an equivolume of Vasculife® growth media before pelleting cells. • 6. Prepare VASCULIFE® assay media (500 μL per each triplicate condition). • 7. Pellet cells at 250-350 rpm for 5 minutes at room temperature. • 8. Decant media and re-suspend into 1 mL of VASCULIFE® assay media. • 9. Measure cell concentration and viability:
• 10. Mix cells at a ratio of 3:1 HUVECs: 017-PC-M cells and seed at a final density of 37,500 cells per well. For one set of triplicates, mix approximately 85,000 HUVECs with 28,000 017-PC-M cells. • 11. Allow co-culture to adhere at 37° C. for 3-4 hours. • 12. […]

Cc1ccc(C(=O)Nc2ccc(S(=O)(=O)O)c3cc(S(=O)(=O)O)cc(S(=O)(=O)O)c23)cc1NC(=O)c1cccc(NC(=O)Nc2cccc(C(=O)Nc3cc(C(=O)Nc4ccc(S(=O)(=O)O)c5cc(S(=O)(=O)O)cc(S(=O)(=O)O)c45)ccc3C)c2)c1 [Suramin, suramin hexasodium salt]
reduce tube formation (Addition of 50 μM Suramin): > 90%

VEGF
formation of tubes after addition of VEGF to the assay media (VEGF concentrations ≤2.5 ng/mL or ≥10 ng/mL, monocultures and/or co-cultures): may inhibit formation of tubes

basic FGF: basic fibroblast growth factor added to the assay media
tube formation after addition of basic FGF to the assay media (concentrations ≥10 ng/mL, monocultures of HUVECs, of 017-PC-M cells and/or co-cultures): little to no tube formation
